From patent US20050005311A1, “High throughput screening for cancer genes” (priority 2003, published 2005)

System: l(2)gl primary tumor
Type: in vivo, Drosophila melanogaster
Method: Adult hosts injected with l(2)gl/l(2)gl larval tissue were orally administered drugs for 21 days after injection. Hosts were treated with 0 or 0.56 μg/ml of LY294002 (reduction of tumor size to 7% of untreated) and 0 or […] PD98059 (no effect).
Brain lobes from armadillo-lacZ marked larvae; were dissected and cut into halves. Each fragment was injected into the abdomen of a βgal^ml (a mutant that lacks endogenous […] expression) adult female using a 33 gauge needle, where it was cultured for 21 days at room temperature. Hosts that had received transplants were opened along the ventral midline and fixed in 3.7% formaldehyde in phosphate buffered saline (PBS). β-galactosidase in the donor tissue was detected by staining overnight at 37° C. in 0.02% X-gal in 10 mM Na pyrophosphate, 0.15 M NaCl, […], 5 mM ferricyanide, and 5 mM K ferrocyanide (Specialty Media). Secondary tumors were defined as β-galactosidase-marked cells distinct from the :implanted tumor, which was defined as the primary tumor.
The levels of Mothers against dpp (Mad), P13K, ERK, Akt, and cleaved caspase 3 were studied in brain extracts from l(2)gl/l(2)gl, l(2)gl/l(2)gl; sema-5c/sema-5c, and wild-type larvae. P13K was reduced in l(2)gl/l(2)gl;sema-5c/sema-5c compared to l(2)gl/l(2)gl. To further study the role of P13K in l(2)gl tumors, the P13K inhibitor, LY294002, was orally administered to Drosophila adults injected with l(2)gl/l(2)gl tissue.
Adult βgal^nl hosts transplanted with armadillo-lacZ marked l(2)gl brain fragments were treated with 0; 0.556; 5.56; and 55.6 μg/ml of the PI-3 K inhibitor, LY294002 (Sigma), by adding drug to fly media. Flies were cultured for 21 days on drug-containing food and stained for the presence of β-galactosidase. Primary tumor size was determined by counting the cells dissociated from tumors. See, e.g., FIG. 5.

Compound | primary tumor size (% of untreated) (adult hosts injected with l(2)gl/l(2)gl larval tissue, oral, 0.56 μg/ml, 21 days after injection (FIG. 5)) | adverse effects to the hosts (in vivo, po) | primary tumor size (orally administered to Drosophila adults injected with l(2)gl/l(2)gl tissue, dose not given) | effect on l(2)gl primary tumor growth (adult hosts injected with l(2)gl/l(2)gl larval tissue, oral, 0.56 μ/ml, 21 days after injection (FIG. 5))
O=c1cc(N2CCOCC2)oc2c(-c3ccccc3)cccc12 [LY294002] | 7 % of untreated | without adverse effects | 7 % of untreated hosts | –
COc1cccc(-c2cc(=O)c3ccccc3o2)c1N [PD98059] | – | – | – | no effect
